Test results taken from patent publication US6998383B2, “Inhibitors of receptor activator of NF-κB and uses thereof” (Research Development Corporation, priority 2001, dated 2006).

Key:
[1] = test system: bone marrow-derived mouse monocytes; test: RANKL and M-CSF-mediated osteoclast differentiation in bone marrow-derived mouse monocytes (TRAP staining); type: cell-based
Experimental: After 6-7 days, the cells were fixed and stained for TRAP. The numbers of multi-nucleated, TRAP positive osteoclasts were counted.
Mouse-derived monocytes were plated in 48-well plates and costimulated as in FIG. 3A with murine M-CSF (10 ng/ml) and RANKL (30 ng/ml) in the absence (left panel) or presence of the indicated peptides. After 6-7 days, the cells were fixed and stained for TRAP. A representative field from each well was taken at a magnification of 10×.
Primary bone marrow monocytes (BM) or RAW264.7 cells were cultured in 48-well dishes at a density of 1×10^5 cells/well or 2×10^3 cells/well, and then treated with the indicated factors at the beginning of the culture and during a medium change on day 3. Osteoclast formation was assessed by counting the total number of multi-nucleated (>3 nuclei), TRAP-positive cells present per well between day 7 and 10 (BM) or on day 5 (RAW264.7) (30).
To further support the results obtained from the RAW264.7 cell line, the ability of these peptides to inhibit RANKL-mediated osteoclast differentiation in primary mouse-derived monocytes was tested. Costimulation of bone marrow-derived monocytes with RANKL and M-CSF cause osteoclast differentiation after 7-10 days, as determined by staining multi-nucleated, TRAP positive osteoclasts (30). Similar to the results with RAW264.7 cells, both L-T6DP-1 and L-T6DP-2 inhibited the development of TRAP positive osteoclast in a dose-dependent manner and L-T6DP-1 was much more efficient (FIGS. 3A and 3B).

[2] = test system: RAW cells co-cultured with breast cancer cell lines; test: Osteoclast differentiation of RAW cells induced by co-cultured breast cancer cells (T47D, MDA-MB-468); type: cell-based, mouse; settings: co-culture, 100 μM peptide, 5 days, TRAP staining (FIG. 6A)
Experimental: FIG. 6A: Breast cancer cells (500/well) were plated in 24-well plates in the absence or presence of RAW cells (10000/well) and in the absence or presence of L-T6DP-1 or T6DP-1 (100 μM). After 5 days. the cells were fixed, stained for TRAP, and photographed with a 10× objective lens.
The number of MG-63 cells was critical for inducing RAW cells to differentiate into osteoclasts. These observations lead to a direct inverse relationship between the number of RAW cells to MG-63 cells which is required for the formation of osteoclasts. […] When grown on synthetic bone slides, the osteoclasts derived from the co-culture assays were able to cause bone resorption (FIG. 6B).
When L-T6DP-1 was added to these co-culture assays, the ability of the breast cancer cells to induce osteoclast differentiation of RAW cells was abolished, whereas T6DP-1 had no effect (FIG. 6A).

What does the source list for “L-T6DP-1: Kaposi fibroblast growth factor signal sequence hydrophobic domain attached to murine RANK peptide containing the known TRAF6 binding domain (AAVALLPAVLLALLAPRKIPTEDEYTDRPSQPST; PEPTIDE Peptide L-T6Bp-1)”?
development of TRAP positive osteoclasts ([1]; M-CSF 10 ng/ml and RANKL 30 ng/ml (FIGS. 3A, 3B)): inhibited; multi-nucleated osteoclasts ([1]; M-CSF and RANKL, 30 μM peptide, cells still TRAP positive (FIG. 3B)): multi-nucleated osteoclast were not observed; osteoclasts ([1]; M-CSF and RANKL, 100 μM peptide (FIG. 3B)): no osteoclasts were observed; ability of breast cancer cells to induce osteoclast differentiation of RAW cells [2]: abolished
